Literature values in patent US20060264496A1, “Substituted indoline and indole derivatives” (priority 2003, published 2006).

Key:
[1] = system: animal models of ethanol withdrawal syndrome
[2] = system: animal models of neuropathic pain
epileptic patients = conditions: clinical trials
hippocampal kindling = conditions: rat
[3] = system: animal models of anxiety-like behaviour; conditions: some animal models
[4] = system: K(+) current in neuronal cells
[5] = system: electrically induced seizures, seizures induced chemically by pentylenetetrazole, picrotoxin and N-methyl-D-aspartate (NMDA), DBA/2 mouse; conditions: oral and intraperitoneal administration, rats and mice
amygdala kindling model = conditions: complex partial seizures
[6] = system: kainic acid-induced status epilepticus; conditions: rat, following kainic acid-induced status epilepticus

Row | Compound | effect in ethanol withdrawal syndrome models [1] | effect in neuropathic pain models [2] | incidence of seizures (epileptic patients) | progression of hippocampal kindling (hippocampal kindling) | activity in anxiety-like behaviour models [3] | activation of K(+) current [4] | anticonvulsant activity [5] | activity in amygdala kindling model (amygdala kindling model) | limbic neurodegeneration and expression of markers of apoptosis [6]
1 | NCC1(CC(=O)O)CCCCC1 [gabapentin] | very effective | – | – | – | – | – | – | – | –
2 | CCOC(=O)Nc1ccc(NCc2ccc(F)cc2)cc1N [Retigabine, N-(2-amino-4-(4-fluorobenzylamino)-phenyl)carbamic acid ethyl ester] | – | beneficial | effectiveness in reducing the incidence of seizures | delay the progression of hippocampal kindling | active | activate a K(+) current | active | active | prevent limbic neurodegeneration and the expression of markers of apoptosis
